Assay results taken from patent US11306064B2, “Benzothia(di)azepine compounds and their use as bile acid modulators” (Albireo AB, priority 2018, dated 2022).

Legend:
Format in all cases: cell-based
Human LBAT = target: T1, Human LBAT (Homo sapiens, UniProt Q14973); experiment: LBAT (h/m) assay: 3H-taurocholic acid uptake in human LBAT-overexpressing cells; conditions: 0.3 μM 3H-taurocholic acid and 7.5 μM cold taurocholic acid, 20 minutes, read-out: hLBAT IC50
T1 construct: expressed in transfected cells; kept under Geneticin selection
T1 sequence (Q14973 1-349): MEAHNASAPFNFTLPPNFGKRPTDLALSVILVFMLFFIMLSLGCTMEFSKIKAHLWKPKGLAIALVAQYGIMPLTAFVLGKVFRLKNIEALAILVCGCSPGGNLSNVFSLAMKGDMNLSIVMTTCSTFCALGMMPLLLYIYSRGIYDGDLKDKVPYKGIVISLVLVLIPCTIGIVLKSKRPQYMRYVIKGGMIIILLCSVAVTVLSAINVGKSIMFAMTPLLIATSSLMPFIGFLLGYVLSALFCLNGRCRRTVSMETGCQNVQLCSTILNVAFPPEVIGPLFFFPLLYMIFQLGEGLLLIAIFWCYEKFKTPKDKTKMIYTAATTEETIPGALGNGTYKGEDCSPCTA
How it was run: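 LBAT-overexpressing cells, serum-free MEM-alpha, 20 min at 37° C with inhibitor (3-fold, 10-point) plus 0.3 μM 3H-taurocholic acid and cold taurocholic acid (7.5 μM human; 25 μM mouse), 0.2% DMSO. Stopped on ice, washed with 1 mM unlabelled taurocholate; uptake by scintillation counting.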

Human ASBT = target: T2, Human ASBT (Homo sapiens, UniProt Q12908); experiment: ASBT (h/m) assay: 3H-taurocholic acid uptake in human ASBT-overexpressing cells; conditions: 0.25 μM 3H-taurocholic acid and 5 μM cold taurocholic acid, 20 minutes, read-out: hASBT IC50
T2 construct: expressed in transfected cells; kept under Puromycin selection
T2 sequence (Q12908 1-348): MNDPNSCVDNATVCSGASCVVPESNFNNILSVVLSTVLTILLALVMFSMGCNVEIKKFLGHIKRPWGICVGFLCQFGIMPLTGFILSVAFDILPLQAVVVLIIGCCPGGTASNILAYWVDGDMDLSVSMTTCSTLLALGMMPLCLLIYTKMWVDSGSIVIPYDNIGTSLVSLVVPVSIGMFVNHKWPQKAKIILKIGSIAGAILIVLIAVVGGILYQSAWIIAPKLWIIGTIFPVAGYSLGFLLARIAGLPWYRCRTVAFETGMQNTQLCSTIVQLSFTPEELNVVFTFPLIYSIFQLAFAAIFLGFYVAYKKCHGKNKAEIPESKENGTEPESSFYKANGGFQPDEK
How it was run: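 ASBT-overexpressing cells, seeded 48 h earlier, took up 0.25 µM 3H-taurocholic acid plus 5 µM cold taurocholate for 20 min at 37 °C with inhibitor (10-point 3-fold series, top 10 µM, 0.2% DMSO). Ice stop, washes with cold 1 mM taurocholate in HEPES-HBSS pH 7.4, scintillation counting.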

HepaRG cells = experiment: HepaRG-based assay: 3H-taurocholic acid uptake in differentiated HepaRG cells; conditions: Homo sapiens, HepaRG, 0.3 μM 3H-taurocholic acid and 7.5 μM cold taurocholic acid, 30 minutes
How it was run: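 Differentiated HepaRG cells cultured 7 days post-seeding were exposed for 30 min at 37 °C to 0.3 μM 3H-taurocholic acid plus 7.5 μM cold taurocholic acid with inhibitor (3-fold dilutions, 0.2% DMSO). Uptake was stopped on ice, washed with 1 mM unlabelled taurocholic acid, and counted by scintillation.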

SMILES | IC50 (Human LBAT) [nM] | IC50 (Human ASBT) [nM] | IC50 (HepaRG cells) [nM]
CCCCC1(CCCC)CN(c2ccccc2)c2cc(C3CC3)c(O/C=C/C(=O)O)cc2S(=O)(=O)C1 [Example 7, (E)-3-((3,3-dibutyl-7-cyclopropyl-1,1-dioxido-5-phenyl-2,3,4,5-tetrahydro-1,5-benzothiazepin-8-yl)oxy)acrylic Acid] | 749 | 217 | 3190
CCCCC1(CCCC)CN(c2ccc(NS(=O)(=O)C3CC3)cc2)c2cc(SC)c(O/C=C/C(=O)O)cc2S(=O)(=O)C1 [Example 9, (E)-3-((3,3-dibutyl-5-(4-(cyclopropanesulfonamido)phenyl)-7-(methylthio)-1,1-dioxido-2,3,4,5-tetrahydro-1,5-benzothiazepin-8-yl)oxy)acrylic Acid] | 1090 | 1200 | 3080
CCCCC1(CCCC)CN(c2ccc(NS(C)(=O)=O)cc2)c2cc(SC)c(O/C=C/C(=O)O)cc2S(=O)(=O)C1 [Example 10, (E)-3-((3,3-dibutyl-5-(4-(methylsulfonamido)phenyl)-7-(methylthio)-1,1-dioxido-2,3,4,5-tetrahydro-1,5-benzothiazepin-8-yl)oxy)acrylic Acid] | 3980 | 1410 | 4700
CCCCC1(CCCC)CN(c2ccccc2)c2cc(CC)c(O/C=C/C(=O)O)cc2S(=O)(=O)C1 [Example 12, (E)-3-((3,3-dibutyl-7-ethyl-1,1-dioxido-5-phenyl-2,3,4,5-tetrahydro-1,5-benzothiazepin-8-yl)oxy)acrylic Acid] | 393 | 482 | 2610
CCCCC1(CCCC)CN(c2ccccc2)c2cc(OC)c(O/C=C/C(=O)O)cc2S(=O)(=O)C1 [Example 14, (E)-3-((3,3-dibutyl-7-methoxy-1,1-dioxido-5-phenyl-2,3,4,5-tetrahydro-1,5-benzothiazepin-8-yl)oxy)acrylic Acid] | 1430 | 304 | 5160
CCCCC1(CCCC)CN(c2ccc(Br)cc2)c2cc(SC)c(O/C=C/C(=O)O)cc2S(=O)(=O)C1 [Example 15, (E)-3-((5-(4-bromophenyl)-3,3-dibutyl-7-(methylthio)-1,1-dioxido-2,3,4,5-tetrahydro-1,5-benzothiazepin-8-yl)oxy)acrylic Acid] | 532 | 253 | 2250
CCCCC1(CC)CN(c2ccccc2)c2ccc(O/C=C/C(=O)O)cc2S(=O)(=O)C1 (stereo not drawn) [Example 21, (E)-3-((3-butyl-3-ethyl-1,1-dioxido-5-phenyl-2,3,4,5-tetrahydro-1,5-benzothiazepin-8-yl)oxy)acrylic Acid] | 4150 | 929 | 5230
CCCCC1(CCCC)CN(c2ccc(NC(=O)OC(C)(C)C)cc2)c2cc(SC)c(O/C=C(\F)C(=O)O)cc2S(=O)(=O)C1 [Example 26, (Z)-3-((5-(4-((tert-butoxycarbonyl)amino)phenyl)-3,3-dibutyl-7-(methylthio)-1,1-dioxido-2,3,4,5-tetrahydro-1,5-benzothiazepin-8-yl)oxy)-2-fluoroacrylic Acid] | 53 | 3240 | 477
CCCCC1(CCCC)CN(c2ccc(C(F)(F)F)cc2)c2cc(SC)c(O/C=C/C(=O)O)cc2S(=O)(=O)C1 [Example 32, (E)-3-((3,3-dibutyl-7-(methylthio)-1,1-dioxido-5-(4-(trifluoromethyl)phenyl)-2,3,4,5-tetrahydro-1,5-benzothiazepin-8-yl)oxy)acrylic Acid] | 506 | 209 | 672
CCC1(CC)CN(c2ccccc2)c2cc(SC)c(O/C=C/C(=O)O)cc2S(=O)(=O)C1 [Example 39, (E)-3-((3,3-diethyl-7-(methylthio)-1,1-dioxido-5-phenyl-2,3,4,5-tetrahydro-1,5-benzothiazepin-8-yl)oxy)acrylic Acid] | 75 | 796 | 399
CCCCC1(CCCC)CN(c2ccc(NC(=O)CCC)cc2)c2cc(SC)c(O/C=C/C(=O)O)cc2S(=O)(=O)C1 [Example 40, (E)-3-((3,3-dibutyl-5-(4-butyramidophenyl)-7-(methylthio)-1,1-dioxido-2,3,4,5-tetrahydro-1,5-benzothiazepin-8-yl)oxy)acrylic Acid] | 108 | 4550 | 1510
CCCCC1(CCCC)CN(c2ccccc2)c2ccc(O/C=C(\F)C(=O)O)cc2S(=O)(=O)C1 [Example 45, (Z)-3-((3,3-dibutyl-1,1-dioxido-5-phenyl-2,3,4,5-tetrahydro-1,5-benzothiazepin-8-yl)oxy)-2-fluoroacrylic Acid] | 201 | 1460 | 3160
CCCCC1(CCCC)CN(c2ccccc2)c2cc(Cl)c(O/C=C(\F)C(=O)O)cc2S(=O)(=O)C1 [Example 53, (Z)-3-((3,3-dibutyl-7-chloro-1,1-dioxido-5-phenyl-2,3,4,5-tetrahydro-1,5-benzothiazepin-8-yl)oxy)-2-fluoroacrylic Acid] | 62 | 280 | 800

Continued, values first:

IC50 (Human LBAT) [nM] | IC50 (Human ASBT) [nM] | IC50 (HepaRG cells) [nM] | SMILES
991 | 144 | 4460 | CCCCC1(CC)CN(c2ccccc2)c2cc(OC)c(O/C=C/C(=O)O)cc2S(=O)(=O)C1 (stereo not drawn) [Example 13, (E)-3-((3-butyl-3-ethyl-7-methoxy-1,1-dioxido-5-phenyl-2,3,4,5-tetrahydro-1,5-benzothiazepin-8-yl)oxy)acrylic Acid]
783 | 128 | 2890 | CCCCC1(CCCC)CN(c2ccc(OC)cc2)c2cc(SC)c(O/C=C/C(=O)O)cc2S(=O)(=O)C1 [Example 19, (E)-3-((3,3-dibutyl-5-(4-methoxyphenyl)-7-(methylthio)-1,1-dioxido-2,3,4,5-tetrahydro-1,5-benzothiazepin-8-yl)oxy)acrylic Acid]
225 | 4670 | 2280 | CCCCC1(CCCC)CN(c2ccc(NC(=O)OC)cc2)c2cc(SC)c(O/C=C/C(=O)O)cc2S(=O)(=O)C1 [Example 24, (E)-3-((3,3-dibutyl-5-(4-((methoxycarbonyl)amino)phenyl)-7-(methylthio)-1,1-dioxido-2,3,4,5-tetrahydro-1,5-benzothiazepin-8-yl)oxy)acrylic Acid]
351 | 370 | 3310 | CCCCC1(CCCC)CN(c2ccc(N(C)C)cc2)c2cc(SC)c(O/C=C/C(=O)O)cc2S(=O)(=O)C1 [Example 25, (E)-3-((3,3-dibutyl-5-(4-(dimethylamino)phenyl)-7-(methylthio)-1,1-dioxido-2,3,4,5-tetrahydro-1,5-benzothiazepin-8-yl)oxy)acrylic Acid]
46 | 4800 | 350 | CCCCC1(CCCC)CN(c2ccc(NC(=O)C(C)(C)C)cc2)c2cc(SC)c(O/C=C/C(=O)O)cc2S(=O)(=O)C1 [Example 27, (E)-3-((3,3-dibutyl-7-(methylthio)-1,1-dioxido-5-(4-pivalamidophenyl)-2,3,4,5-tetrahydro-1,5-benzothiazepin-8-yl)oxy)acrylic Acid]
13 | 4450 | 89 | CCCCC1(CCCC)CN(c2ccc(NC(=O)C(C)(C)C)cc2)c2cc(SC)c(O/C=C(\F)C(=O)O)cc2S(=O)(=O)C1 [Example 28, (Z)-3-((3,3-dibutyl-7-(methylthio)-1,1-dioxido-5-(4-pivalamidophenyl)-2,3,4,5-tetrahydro-1,5-benzothiazepin-8-yl)oxy)-2-fluoroacrylic Acid]
45 | 2000 | 592 | CCCCC1(CCCC)CN(c2ccc(NC(=O)C3CCCC3)cc2)c2cc(SC)c(O/C=C/C(=O)O)cc2S(=O)(=O)C1 [Example 37, (E)-3-((3,3-dibutyl-5-(4-(cyclopentanecarboxamido)phenyl)-7-(methylthio)-1,1-dioxido-2,3,4,5-tetrahydro-1,5-benzothiazepin-8-yl)oxy)acrylic Acid]
100 | 186 | 260 | CCC1(CC)CN(c2ccccc2)c2cc(I)c(O/C=C/C(=O)O)cc2S(=O)(=O)C1 [Example 54, (E)-3-((3,3-diethyl-7-iodo-1,1-dioxido-5-phenyl-2,3,4,5-tetrahydro-1,5-benzothiazepin-8-yl)oxy)acrylic Acid]
